Consider eight molecules from patent US4608381A, “Antiinflammatory 2-(trifluoroethylsulfonyl)benzimidazoles” (Boehringer Ingelheim Pharmaceuticals, Inc., priority 1985, dated 1986).

The test system of experiment [1] is Rats in which polyarthritis has become established. Kind of experiment: Adjuvant-Induced Established Arthritis Assay. Type of experiment: in vivo, rat. To be noted: days 14-27, non-injected paw volume. How it is done:
(§1) Polyarthritis is induced in male CD rats (150-170 g) as follows. Heat-killed Mycobacterium butyricum (0.1 ml of a […] 5 mg/ml adjuvant suspension in light mineral oil) is injected subcutaneously into the plantar surface of the right hind foot of each animal. At least 10 rats are used in each test group. Animals are dosed orally with one of the compounds under assay immediately after adjuvant injection, and once daily for a total of 14 days. Untreated normal and arthritic control groups are used as comparison for test compound effect. Foot volumes are measured 24 hours after the final dose by mercury displacement to the lateral malleolus. Mean displacement volumes and their standard errors are calculated for the non-injected hind paws.
This assay is used to determine the ability of compounds to affect an established chronic inflammatory condition.
Polyarthritis is induced as described in Example 8. Rats in which polyarthritis has become established are selected 14 days after receiving the adjuvant suspension. They are treated daily with oral doses of test compound for 14 days (days 14-27). Foot volumes of the non-injected paws are measured as in 8, 24 hours after the final dose. Untreated arthritic control groups are used as comparison for test compound effect as described in Example 8.

The next experiment has as its system male CD rats. The experiment can be described thus: Adjuvant-Induced Developing Arthritis Assay. Type of experiment: in vivo. Conditions: Rattus norvegicus, po, 336 h, 14 days from adjuvant injection, non-injected hind paw volume; for inhibition in vivo at 25 mg/kg: 25 mg/kg orally once daily; for inhibition in vivo at 50 mg/kg: 50 mg/kg orally once daily.
From the text: This assay is used to determine the ability of compounds to affect the immunological processes involved in the induction and development of arthritis and represents a standard model for which there is good correlation with human efficacy. It is described and discussed in Newbould, B. B., Chemotherapy of Arthritis Induced in Rats by Mycobacterial Adjuvant., Brit. J. Pharmacol. 21:127-136 (1963) and Federation Proceedings, Models Used for the Study and Therapy of Rheumatoid Arthritis - Symposium of the American Society for Pharmacology and Experimental Therapeutics, Vol. 32, No. 2 (1973). The procedural details and results observed in the experiments reported here are as follows.
as §1
The results are expressed as the percent of the mean displacement volume of the control observed in animals treated with the specified compound at the indicated daily dosage level and are as set forth in Table 1: […]

Structures are written as SMILES.

What is called % Inhibition is how much of the control response was suppressed. By inhibition in vivo is commonly meant the share of the control response that was lost under treatment. With `O=S(=O)(CC(F)(F)F)c1nc2ccccc2[nH]1` [Example 4, 2-(2,2,2-Trifluoroethylsulfonyl)-1H-benzimidazole], the “% Inhibition” value in experiment [1] (50 mg/kg orally daily) was 45%. Moreover, the inhibition in vivo at 25 mg/kg with male CD rats was 52%.
Turning to `O=S(=O)(CC(F)(F)F)c1nc2cc(Cl)c(Cl)cc2[nH]1` [Example 3, 5,6-Dichloro-2-(2,2,2-trifluoroethylsulfonyl)-1H-benzimidazole], the inhibition in vivo at 25 mg/kg with male CD rats was found to be 24%.
Consider `Cc1cc2nc(S(=O)(=O)CC(F)(F)F)[nH]c2cc1F` [Example 8, 6-Fluoro-5-methYl-2-(2,2,2-trifluoroethylsulfonyl)-1H-benzimidazole], for which the inhibition in vivo at 50 mg/kg in the experiment on male CD rats came to 64%.
As to `CCc1ccc2[nH]c(S(=O)(=O)CC(F)(F)F)nc2c1` [Example 7, 5-Ethyl-2-(2,2,2-trifluoroethylsulfonyl)-1H-benzimidazole], the inhibition in vivo at 25 mg/kg in the experiment on male CD rats is 34%.
For the molecule `Cc1ccc2[nH]c(S(=O)(=O)CC(F)(F)F)nc2c1` [Example 1, 5-Methyl-2-(2,2,2-trifluoroethylsulfonyl)-1H-benzimidazole], the figures for the “% Inhibition” value in experiment [1] (50 mg/kg orally daily), in experiment [1] (75 mg/kg orally daily) and in experiment [1] (100 mg/kg orally daily) were 30%, 42% and 60%, respectively. Besides, in the experiment with male CD rats, the inhibition in vivo at 25 mg/kg was 52%. Also, the inhibition in vivo at 50 mg/kg in the experiment on male CD rats came to 72%.
On to `O=S(=O)(CC(F)(F)F)c1nc2cc(F)ccc2[nH]1` [Example 5, 5-Fluoro-2-(2,2,2-trifluoroethylsulfonyl)-1H-benzimidazole], for which the inhibition in vivo at 25 mg/kg in the experiment on male CD rats is 43%.
Still for that read-out and setting: the result for `Cc1cc2nc(S(=O)(=O)CC(F)(F)F)[nH]c2cc1C` [Example 6, 5,6-Dimethyl-2-(2,2,2-trifluoroethylsulfonyl)-1H-benzimidazole] reads 18%.
Still for that read-out and setting: the result for `O=S(=O)(CC(F)(F)F)c1nc2cc(Cl)ccc2[nH]1` [Example 2, 5-Chloro-2-(2,2,2-trifluoroethylsulfonyl)-1H-benzimidozole] reads 28%.
